US10377770B2 (Novartis AG, priority 2015, dated 2019)

target: C-Raf FL (full length CRAF with Y340E and Y341E activating mutations, co-expressed with h14-3-3 zeta) (Homo sapiens (Human), UniProt P04049, Y340E/Y341E); experiment: In vitro Raf activity determination, AlphaScreen p-MEK readout, c-Raf (C-Raf FL); type: biochemical; settings: c-Raf approximately 4 nM, ATP 1 μM, pre-incubation 60 minutes, reaction 1 hour
In short: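 Phosphorylation of kinase-dead biotinylated MEK1 (~10 nM) by C-Raf FL (~4 nM) read by AlphaScreen luminescence with anti-phospho-MEK1/2 after EDTA stop. ATP was 1 μM, with a 1 h reaction at room temperature. Compounds were pre-incubated with enzyme and substrate for 60 min in Tris/MgCl2 buffer, pH 7.5.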

Chain of C-Raf FL (full length CRAF with Y340E and Y341E activating mutations, co-expressed with h14-3-3 zeta) (P04049 whole entry Y340E/Y341E): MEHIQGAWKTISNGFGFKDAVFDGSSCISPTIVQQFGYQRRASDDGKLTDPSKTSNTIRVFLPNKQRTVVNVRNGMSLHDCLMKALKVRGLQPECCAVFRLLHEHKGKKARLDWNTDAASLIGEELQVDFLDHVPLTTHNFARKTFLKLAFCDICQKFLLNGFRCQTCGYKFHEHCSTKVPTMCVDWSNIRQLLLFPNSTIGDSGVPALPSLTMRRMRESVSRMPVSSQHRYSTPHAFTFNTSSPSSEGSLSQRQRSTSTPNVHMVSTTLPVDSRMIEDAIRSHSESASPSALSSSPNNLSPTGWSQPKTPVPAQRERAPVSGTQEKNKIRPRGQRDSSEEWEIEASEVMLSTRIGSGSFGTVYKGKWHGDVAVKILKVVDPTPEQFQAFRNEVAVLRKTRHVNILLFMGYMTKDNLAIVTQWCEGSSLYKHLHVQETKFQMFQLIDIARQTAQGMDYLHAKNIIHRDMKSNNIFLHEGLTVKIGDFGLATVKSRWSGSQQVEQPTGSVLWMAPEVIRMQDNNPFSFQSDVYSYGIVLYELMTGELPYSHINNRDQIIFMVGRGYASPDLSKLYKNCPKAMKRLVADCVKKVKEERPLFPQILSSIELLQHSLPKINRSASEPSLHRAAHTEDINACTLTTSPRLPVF
Chain of C-Raf FL (full length CRAF with Y340E and Y341E activating mutations, co-expressed with h14-3-3 zeta) (P63104 whole entry partner): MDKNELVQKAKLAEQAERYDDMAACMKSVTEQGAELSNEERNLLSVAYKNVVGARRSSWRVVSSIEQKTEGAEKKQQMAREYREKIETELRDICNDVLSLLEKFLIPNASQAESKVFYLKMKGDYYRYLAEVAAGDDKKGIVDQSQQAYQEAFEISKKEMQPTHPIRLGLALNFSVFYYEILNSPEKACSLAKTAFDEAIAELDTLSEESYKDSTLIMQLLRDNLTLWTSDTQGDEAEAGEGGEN

| SMILES | IC50 [nM] |
| --- | --- |
| Cc1ncc(NC(=O)c2ccnc(C(C)(C)F)c2)cc1-c1ccc2c(c1)N1CCOCC[C@H]1C[C@@H]2O [Example 445, 2-(2-fluoropropan-2-yl)-N-(5-((5aS,7S)-7-hydroxy-1,2,5,5a,6,7-hexahydro-4H-[1,4]oxazepino [4,5-a]quinolin-10-yl)-6-methylpyridin-3-yl)isonicotinamide] | 0.7 |
| Cc1ncc(NC(=O)c2cccc(C(F)(F)F)c2)cc1-c1ccc2c(c1)N1CCOCC[C@H]1C[C@H]2O [Example 446, N-(5-((5aS,7R)-7-hydroxy-1,2,5,5a,6,7-hexahydro-4H-[1,4]oxazepino [4,5-a]quinolin-10-yl)-6-methylpyridin-3-yl)-3-(trifluoro-methyl)benzamide] | 0.7 |
| Cc1ncc(NC(=O)c2cccc(C(F)(F)F)c2)cc1-c1ccc2c(c1)N1CCOCC[C@H]1C[C@@H]2O [Example 447, N-(5-((5aS,7S)-7-hydroxy-1,2,5,5a,6,7-hexahydro-4H-[1,4]oxazepino [4,5-a]quinolin-10-yl)-6-methylpyridin-3-yl)-3-(trifluoro-methyl)benzamide] | 0.5 |
| Cc1ccc(NC(=O)c2ccnc(C(F)(F)F)c2)cc1-c1cnc2c(c1)N1CCOC[C@@H]1[C@H](C(C)(C)O)C2 [Example 448, N-(3-((4aS,5R)-5-(2-hydroxypropan-2-yl)-1,2,4,4a,5,6-hexahydro-[1,4]oxazino[4,3-a][1,5]naphthyridin-9-yl)-4-methylphenyl)-2-(trifluoromethyl)isonicotinamide] | 0.2 |
| Cc1ncc(NC(=O)c2cccc(C(F)(F)F)c2)cc1-c1cnc2c(c1)N1CCOC[C@@H]1[C@H](C(C)(C)O)C2 [Example 449, N-(5-((4aS,5R)-5-(2-hydroxypropan-2-yl)-1,2,4,4a,5,6-hexahydro-[1,4]oxazino[4,3-a] [1,5]naphthyridin-9-yl)-6-methylpyridin-3-yl)-3-(trifluoro-methyl)benzamide] | 0.7 |
| Cc1ccc(NC(=O)c2ccnc(C(C)(F)F)c2)cc1-c1cnc2c(c1)N1CCOC[C@@H]1[C@H](C(C)(C)O)C2 [Example 450, 2-(1,1-difluoroethyl)-N-(3-((4aS,5R)-5-(2-hydroxypropan-2-yl)-1,2,4,4a,5,6-hexahydro-[1,4]oxazino[4,3-a][1,5]naphthyridin-9-yl)-4-methylphenyl) isonicotinamide] | 0.2 |
| Cc1ccc(NC(=O)c2ccnc(C(F)(F)F)c2)cc1-c1cnc2c(c1)N1CCOC[C@H]1[C@@H](C(C)(C)O)C2 [Example 451, N-(3-((4aR,5S)-5-(2-hydroxypropan-2-yl)-1,2,4,4a,5,6-hexahydro-[1,4]oxazino[4,3-a][1,5]naphthyridin-9-yl)-4-methylphenyl)-2-(trifluoromethyl) isonicotinamide] | 0.6 |
| Cc1ncc(NC(=O)c2cccc(C(F)(F)F)c2)cc1-c1cnc2c(c1)N1CCOC[C@H]1[C@@H](C(C)(C)O)C2 [Example 452, N-(5-((4aR,5S)-5-(2-hydroxypropan-2-yl)-1,2,4,4a,5,6-hexahydro-[1,4]oxazino[4,3-a][1,5]naphthyridin-9-yl)-6-methylpyridin-3-yl)-3-(trifluoro-methyl)benzamide] | 0.5 |
| Cc1ccc(NC(=O)c2ccnc(C(C)(F)F)c2)cc1-c1cnc2c(c1)N1CCOC[C@H]1[C@@H](C(C)(C)O)C2 [Example 453, 2-(1,1-difluoroethyl)-N-(3-((4aR,5S)-5-(2-hydroxypropan-2-yl)-1,2,4,4a,5,6-hexahydro-[1,4]oxazino[4,3-a][1,5]naphthyridin-9-yl)-4-methylphenyl) isonicotinamide] | 0.7 |
| Cc1ccc(NC(=O)c2ccnc(C(F)(F)F)c2)cc1-c1cnc2c(c1)N1CCOC[C@@H]1[C@@H](C(C)(C)O)C2 [Example 454] | 0.8 |
| Cc1ncc(NC(=O)c2cccc(C(F)(F)F)c2)cc1-c1cnc2c(c1)N1CCOC[C@@H]1[C@@H](C(C)(C)O)C2 [Example 455, N-(5-((4aS,5S)-5-(2-hydroxypropan-2-yl)-1,2,4,4a,5,6-hexahydro-[1,4]oxazino[4,3-a][l,5]naphthyridin-9-yl)-6-methylpyridin-3-yl)-3-(trifluoro-methyl)benzamide] | 1.3 |
| Cc1ccc(NC(=O)c2ccnc(C(C)(F)F)c2)cc1-c1cnc2c(c1)N1CCOC[C@@H]1[C@@H](C(C)(C)O)C2 [Example 456, 2-(1,1-difluoroethyl)-N-(3-((4aS,5S)-5-(2-hydroxypropan-2-yl)-1,2,4,4a,5,6-hexahydro-[1,4]oxazino[4,3-a][1,5]naphthyridin-9-yl)-4-methylphenyl) isonicotinamide] | 0.7 |
| Cc1ccc(NC(=O)c2ccnc(C(F)(F)F)c2)cc1-c1cnc2c(c1)N1CCOC[C@H]1[C@H](C(C)(C)O)C2 [Example 457] | 0.4 |
| Cc1ncc(NC(=O)c2cccc(C(F)(F)F)c2)cc1-c1cnc2c(c1)N1CCOC[C@H]1[C@H](C(C)(C)O)C2 [Example 458, N-(5-((4aR,5R)-5-(2-hydroxypropan-2-yl)-1,2,4,4a,5,6-hexahydro-[1,4]oxazino[4,3-a][1,5]naphthyridin-9-yl)-6-methylpyridin-3-yl)-3-(trifluoro-methyl)benzamide] | 0.7 |
| Cc1ccc(NC(=O)c2ccnc(C(C)(F)F)c2)cc1-c1cnc2c(c1)N1CCOC[C@@H]1[C@@H](C(C)(C)O)C2 [Example 459, 2-(1,1-difluoroethyl)-N-(3-((4aS,5S)-5-(2-hydroxypropan-2-yl)-1,2,4,4a,5,6-hexahydro-[1,4]oxazino[4,3-a][1,5]naphthyridin-9-yl)-4-methylphenyl) isonicotinamide] | 0.4 |
| Cc1ncc(NC(=O)c2ccnc(C(C)(F)F)c2)cc1-c1ccc2c(c1)N1CCOC[C@H]1[C@](F)(CF)C2 [Example 467] | 1.9 |
| Cc1ncc(NC(=O)c2ccnc(C(C)(C)C)c2)cc1-c1ccc2c(c1)N1CCOC[C@H]1[C@](F)(CF)C2 [Example 468, 2-(tert-butyl)-N-(5-((4aS,5S)-5-fluoro-5-(fluoromethyl)-1,2,4,4a,5,6-hexahydro-[1,4]oxazino[4,3-a]quinolin-9-yl)-6-methylpyridin-3-yl)isonicotinamide] | 8 |
| Cc1ccc(NC(=O)c2cncc(C(F)(F)F)c2)cc1-c1ccc2c(c1)N1CCOC[C@H]1[C@](F)(CF)C2 [Example 469, N-(3-((4aS,5S)-5-fluoro-5-(fluoromethyl)-1,2,4,4a,5,6-hexahydro-[1,4]oxazino[4,3-a]quinolin-9-yl)-4-methylphenyl)-5-(trifluorometh-yl)nicotinamide] | 1.8 |
| Cc1ncc(NC(=O)c2cncc(C(F)(F)F)c2)cc1-c1ccc2c(c1)N1CCOC[C@H]1[C@](F)(CF)C2 [Example 470, N-(5-((4aS,5S)-5-fluoro-5-(fluoromethyl)-1,2,4,4a,5,6-hexahydro-[1,4]oxazino[4,3-a]quinolin-9-yl)-6-methylpyridin-3-yl)-5-(trifluorometh-yl)nicotinamide] | 2.2 |
| Cc1ncc(NC(=O)c2ccnc(C(F)(F)F)c2)cc1-c1ccc2c(c1)N1CCOC[C@H]1[C@](F)(CF)C2 [Example 471, N-(5-((4aS,5S)-5-fluoro-5-(fluoromethyl)-1,2,4,4a,5,6-hexahydro-[1,4]oxazino[4,3-a]quinolin-9-yl)-6-methylpyridin-3-yl)-2-(trifluoromethyl)iso-nictonamide] | 1.2 |
| Cc1ccc(NC(=O)c2ccnc(C(F)(F)F)c2)cc1-c1ccc2c(c1)N1CCOC[C@H]1[C@](F)(CF)C2 [Example 472, N-(3-((4aS,5S)-5-fluoro-5-(fluoromethyl)-1,2,4,4a,5,6-hexahydro-[1,4]oxazino[4,3-a]quinolin-9-yl)-4-methylphenyl)-2-(trifluoromethyl)iso-nicotinamide] | 2 |
| Cc1ccc(NC(=O)c2ccnc(C(C)(F)F)c2)cc1-c1ccc2c(c1)N1CCOC[C@H]1[C@](F)(CF)C2 [Example 473] | 1.5 |
| Cc1ccc(NC(=O)c2ccnc(C(C)(C)C)c2)cc1-c1ccc2c(c1)N1CCOC[C@H]1[C@](F)(CF)C2 [Example 474, 2-(tert-butyl)-N-(3-((4aS,5S)-5-fluoro-5-(fluoromethyl)-1,2,4,4a,5,6-hexahydro-[1,4]oxazino[4,3-a]quinolin-9-yl)-4-methylphenyl)iso-nicotinamide] | 5.5 |
| Cc1ccc(NC(=O)c2cnnc(C(F)(F)F)c2)cc1-c1ccc2c(c1)N1CCOC[C@H]1[C@](F)(CF)C2 [Example 475, N-(3-((4aS,5S)-5-fluoro-5-(fluoromethyl)-1,2,4,4a,5,6-hexahydro-[1,4]oxazino[4,3-a]quinolin-9-yl)-4-methylphenyl)-6-(trifluorometh-yl)pyridazine-4-carboxamide] | 0.4 |
| Cc1ccc(NC(=O)c2ccnc(C(C)(F)F)c2)cc1-c1cc2c(cc1F)C[C@](F)(CO)[C@H]1COCCN21 [Example 476, N-(3-((4aR,5R)-5,8-difluoro-5-(hydroxymethyl)-1,2,4,4a,5,6-hexahydro-[1,4]oxazino[4,3-a]quinolin-9-yl)-4-methylphenyl)-2-(1,1-difluoroethyl)iso-nicotinamide] | 0.2 |
| Cc1ccc(NC(=O)c2cnnc(C(F)(F)F)c2)cc1-c1cc2c(cc1F)C[C@](F)(CO)[C@H]1COCCN21 [Example 477, N-(3-((4aR,5R)-5,8-difluoro-5-(hydroxymethyl)-1,2,4,4a,5,6-hexahydro-[1,4]oxazino[4,3-a]quinolin-9-yl)-4-methylphenyl)-6-(trifluoromethyl) pyridazine-4-carboxamide] | 0.1 |
| Cc1ccc(NC(=O)c2ccnc(C(C)(C)F)c2)cc1-c1cc2c(cc1F)C[C@](F)(CO)[C@H]1COCCN21 [Example 478, N-(3-((4aR,5R)-5,8-difluoro-5-(hydroxymethyl)-1,2,4,4a,5,6-hexahydro-[1,4]oxazino[4,3-a]quinolin-9-yl)-4-methylphenyl)-2-(2-fluoropropan-2-yl)isonicotinamide] | 0.2 |
